The results in this text go back to patent publication US20250115591A1, “NOVEL SULFONAMIDE CARBOXAMIDE COMPOUNDS” (INFLAZOME LIMITED, priority 2017, published 2025).

The target of this experiment is NLRP3 (Homo sapiens (Human), UniProt Q96P20). Briefly: THP-1 cells pyroptosis assay (LPS + nigericin, resazurin read-out). The experiment is classed as cell-based. The settings on record: 1 μg/ml LPS, 5 μM nigericin. Here is the method: THP-1 cells (ATCC #TIB-202) were grown in RPMI containing L-glutamine (Gibco 15 #11835) supplemented with 1 mM sodium pyruvate (Sigma #S8636) and penicillin (100 units/ml)/streptomycin (0.1 mg/ml) (Sigma #P4333) in 10% Fetal Bovine Serum (FBS) (Sigma #F0804). The cells were routinely passaged and grown to confluency (˜10^6 cells/ml). On the day of the experiment, THP-1 cells were harvested and resuspended into RPMI medium (without FBS). The cells were then counted and viability (>90%) checked by Trypan blue (Sigma #T8154). Appropriate dilutions were made to give a concentration of 625,000 cells/ml. To this diluted cell solution was added LPS (Sigma #[4524) to give a 1 μg/ml Final Assay Concentration (FAC). 40μ of the final preparation was aliquoted into each well of a 96-well plate. The plate thus prepared was used for compound screening.
The following method step-by-step assay was followed for compound screening. • 1. Seed THP-1 cells (25,000 cells/well) containing 1.0 μg/ml LPS in 40μ of RPMI medium (without FBS) in 96-well, black walled, clear bottom cell culture plates coated with poly-D-lysine (VWR #734-0317) • 2. Add 5 μl compound (8 points half-log dilution, with […]) or vehicle (DMSO 0.1% FAC) to the appropriate wells • 3. Incubate for 3 hrs at 37° C. and 5% CO2 • 4. Add 5 μl nigericin (Sigma #N7143) (FAC 5 μM) to all wells • 5. Incubate for 1 hr at 37° C. and 5% CO2 • 6. At the end of the incubation period, spin plates at 300×g for 3 mins and remove supernatant • 7. Then add 50 μl of resazurin (Sigma #R7017) (FAC 100 μM resazurin in RPMI medium without FBS) and incubate plates for a further 1-2 hrs at 37° C. and 5% CO2 • 8. Plates were read in an Envision reader at Ex 560 nm and Em 590 nm • 9. IC50 data is fitted to a non-linear regression equation (log inhibitor vs response-variable slope 4-parameters)
(In general: Alamar Blue is a resazurin reagent that responds to reducing activity.)

One may read the IC50 as the concentration that inhibits the measured activity by half.

Counter-ions that a name gives are not always drawn.

Sequence of NLRP3 (Q96P20 whole entry): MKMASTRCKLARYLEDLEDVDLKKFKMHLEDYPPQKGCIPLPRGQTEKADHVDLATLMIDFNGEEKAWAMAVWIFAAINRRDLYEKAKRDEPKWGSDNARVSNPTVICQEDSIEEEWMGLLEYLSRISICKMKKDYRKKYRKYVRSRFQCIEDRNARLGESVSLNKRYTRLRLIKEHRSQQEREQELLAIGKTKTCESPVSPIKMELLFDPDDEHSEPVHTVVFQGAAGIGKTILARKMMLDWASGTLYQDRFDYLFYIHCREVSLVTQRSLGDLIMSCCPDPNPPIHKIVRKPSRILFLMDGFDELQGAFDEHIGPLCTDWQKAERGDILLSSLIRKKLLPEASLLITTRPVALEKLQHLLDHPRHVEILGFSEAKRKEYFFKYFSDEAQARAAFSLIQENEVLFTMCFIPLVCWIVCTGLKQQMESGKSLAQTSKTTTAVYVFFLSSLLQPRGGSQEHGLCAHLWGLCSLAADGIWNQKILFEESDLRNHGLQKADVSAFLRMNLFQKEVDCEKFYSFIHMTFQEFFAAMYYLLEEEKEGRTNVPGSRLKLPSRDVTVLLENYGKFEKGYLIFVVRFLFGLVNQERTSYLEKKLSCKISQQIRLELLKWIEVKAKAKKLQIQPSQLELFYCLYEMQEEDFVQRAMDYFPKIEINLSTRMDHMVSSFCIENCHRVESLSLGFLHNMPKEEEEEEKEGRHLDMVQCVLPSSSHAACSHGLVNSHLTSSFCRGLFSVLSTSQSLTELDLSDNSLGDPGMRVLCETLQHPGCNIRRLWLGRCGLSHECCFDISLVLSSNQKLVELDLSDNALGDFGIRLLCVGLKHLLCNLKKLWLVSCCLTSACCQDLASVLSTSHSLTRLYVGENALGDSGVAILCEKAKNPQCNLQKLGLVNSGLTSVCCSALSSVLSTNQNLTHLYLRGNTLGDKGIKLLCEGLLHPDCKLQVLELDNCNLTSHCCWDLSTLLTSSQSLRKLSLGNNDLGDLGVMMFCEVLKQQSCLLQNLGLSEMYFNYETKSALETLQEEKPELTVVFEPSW

In the case of `CC(=N)N1CC(S(=O)(=O)NC(=O)Nc2c3c(cc4c2CCC4)CCC3)C1` [Example 100, N-((1,2,3,5,6,7-Hexahydro-s-indacen-4-yl)carbamoyl)-1-(1-iminoethyl)azetidine-3-sulfonamide, potassium salt], the IC50 is 1000 to 10000 nM.

For `CN(C)CCN1CC(S(=O)(=O)NC(=O)Nc2c3c(cc4c2CCC4)CCC3)C1` [Example 102, 1-(2-(Dimethylamino)ethyl)-N-((1,2,3,5,6,7-hexahydro-s-indacen-4-yl)carbamoyl)azetidine-3-sulfonamide, potassium salt], the IC50 is 1000 to 10000 nM.

`O=C(Nc1c2c(cc3c1CCC3)CCC2)NS(=O)(=O)C1CN(Cc2ccccn2)C1` [Example 104, N-((1,2,3,5,6,7-Hexahydro-s-indacen-4-yl)carbamoyl)-1-(pyridin-2-ylmethyl)azetidine-3-sulfonamide, potassium salt]: the IC50 was less than 1000 nM.

Turning to `CSCCN1CC(S(=O)(=O)NC(=O)Nc2c3c(cc4c2CCC4)CCC3)C1` [Example 107, N-((1,2,3,5,6,7-Hexahydro-s-indacen-4-yl)carbamoyl)-1-(2-(methylthio)ethyl)azetidine-3-sulfonamide, potassium salt], the IC50 was less than 1000 nM.

In the case of `CN1CC(N2CC(S(=O)(=O)NC(=O)Nc3c4c(cc5c3CCC5)CCC4)C2)C1` [Example 110, N-((1,2,3,5,6,7-Hexahydro-s-indacen-4-yl)carbamoyl)-1′-methyl-[1,3′-biazetidine]-3-sulfonamide, potassium salt], the IC50 lay within 1000 to 10000 nM.

For the compound `C#CCCC1(CCN2CC(S(=O)(=O)NC(=O)Nc3c4c(cc5c3CCC5)CCC4)C2)N=N1` [Example 111, 1-(2-(3-(But-3-yn-1-yl)-3H-diazirin-3-yl)ethyl)-N-((1,2,3,5,6,7-hexahydro-s-indacen-4-yl)carbamoyl)azetidine-3-sulfonamide, potassium salt], the IC50 lay in the range of 1000 to 10000 nM.

Consider `O=C(Nc1c2c(cc3c1CCC3)CCC2)NS(=O)(=O)C1CN(C2COC2)C1` [Example 116, N-((1,2,3,5,6,7-Hexahydro-s-indacen-4-yl)carbamoyl)-1-(oxetan-3-yl)azetidine-3-sulfonamide, potassium salt], for which the IC50 was 1000 to 10000 nM.

Take `O=C(Nc1c2c(cc3c1CCC3)CCC2)NS(=O)(=O)C1CN(C2C[S+]([O-])C2)C1` (stereo not shown) [Example 117, N-((1,2,3,5,6,7-Hexahydro-s-indacen-4-yl)carbamoyl)-1-(1-oxidothietan-3-yl)azetidine-3-sulfonamide, potassium salt]: the half-inhibitory concentration (IC50) is less than 1000 nM.

As for `CC1CC(N2CC(S(=O)(=O)NC(=O)Nc3c4c(cc5c3CCC5)CCC4)C2)C1` (stereo not shown) [Example 118, N-((1,2,3,5,6,7-Hexahydro-s-indacen-4-yl)carbamoyl)-1-(3-methylcyclobutyl)azetidine-3-sulfonamide, potassium salt], the half-maximal inhibitory concentration (IC50) is less than 1000 nM.

Turning to `CC1(C)CC(N2CC(S(=O)(=O)NC(=O)Nc3c4c(cc5c3CCC5)CCC4)C2)C1` [Example 119, 1-(3,3-Dimethylcyclobutyl)-N-((1,2,3,5,6,7-hexahydro-s-indacen-4-yl)carbamoyl)azetidine-3-sulfonamide, potassium salt], the IC50 lay within 1000 to 10000 nM.

On to `O=C(Nc1c2c(cc3c1CCC3)CCC2)NS(=O)(=O)C1CN(C2CS(=O)(=O)C2)C1` [Example 120, 1-(1,1-Dioxidothietan-3-yl)-N-((1,2,3,5,6,7-hexahydro-s-indacen-4-yl)carbamoyl)azetidine-3-sulfonamide, potassium salt], for which the IC50 was 1000 to 10000 nM.

Regarding `Cn1ccnc1CN1CC(S(=O)(=O)NC(=O)Nc2c3c(cc4c2CCC4)CCC3)C1` [Example 123, N-((1,2,3,5,6,7-Hexahydro-s-indacen-4-yl)carbamoyl)-1-((1-methyl-1H-imidazol-2-yl)methyl)azetidine-3-sulfonamide, potassium salt], the concentration for half-maximal inhibition (IC50) fell in the range of 1000 to 10000 nM.

On to `C/C(CN1CC(S(=O)(=O)NC(=O)Nc2c3c(cc4c2CCC4)CCC3)C1)=N/O` [Example 128, N-((1,2,3,5,6,7-Hexahydro-s-indacen-4-yl)carbamoyl)-1-(2-(hydroxyimino)propyl)azetidine-3-sulfonamide, potassium salt], for which the IC50 lay within 1000 to 10000 nM.

In the case of `C[Si](C)(C)CN1CC(S(=O)(=O)NC(=O)Nc2c3c(cc4c2CCC4)CCC3)C1` [Example 136, N-((1,2,3,5,6,7-Hexahydro-s-indacen-4-yl)carbamoyl)-1-((trimethylsilyl)methyl)azetidine-3-sulfonamide, potassium salt], the IC50 fell in the range of 1000 to 10000 nM.

Take `CC1(CCN2CC(S(=O)(=O)NC(=O)Nc3c4c(cc5c3CCC5)CCC4)C2)N=N1` [Example 139, N-((1,2,3,5,6,7-Hexahydro-s-indacen-4-yl)carbamoyl)-1-(2-(3-methyl-3H-diazirin-3-yl)ethyl)azetidine-3-sulfonamide, potassium salt]: the IC50 lay within 1000 to 10000 nM.

For the compound `Cn1cc(CN2CC(S(=O)(=O)NC(=O)Nc3c4c(cc5c3CCC5)CCC4)C2)ccc1=O` [Example 140, N-((1,2,3,5,6,7-Hexahydro-s-indacen-4-yl)carbamoyl)-1-((1-methyl-6-oxo-1,6-dihydropyridin-3-yl)methyl)azetidine-3-sulfonamide, potassium salt], the IC50 was less than 1000 nM.

As for `O=C(Nc1c2c(cc3c1CCC3)CCC2)NS(=O)(=O)C1CN(CCC2CCOC2)C1` (stereo not shown) [Example 142, N-((1,2,3,5,6,7-Hexahydro-s-indacen-4-yl)carbamoyl)-1-(2-(tetrahydrofuran-3-yl)ethyl)azetidine-3-sulfonamide, potassium salt], the IC50 is less than 1000 nM.

With `CCN1CC(S(=O)(=O)NC(=O)Nc2c3c(cc4c2CCC4)CCC3)CC1=O` (stereo not shown) [Example 147, 1-Ethyl-N-((1,2,3,5,6,7-hexahydro-s-indacen-4-yl)carbamoyl)-5-oxopyrrolidine-3-sulfonamide, potassium salt], the IC50 lay within 1000 to 10000 nM.

As for `COC1CN(C)CC1S(=O)(=O)NC(=O)Nc1c2c(cc3c1CCC3)CCC2` (stereo not shown) [Example 149, N-((1,2,3,5,6,7-Hexahydro-s-indacen-4-yl)carbamoyl)-4-methoxy-1-methylpyrrolidine-3-sulfonamide, potassium salt], the half-inhibitory concentration (IC50) was 1000 to 10000 nM.

Consider `CCN1CC(OC)C(S(=O)(=O)NC(=O)Nc2c3c(cc4c2CCC4)CCC3)C1` (stereo not shown) [Example 150, 1-Ethyl-N-((1,2,3,5,6,7-hexahydro-s-indacen-4-yl)carbamoyl)-4-methoxypyrrolidine-3-sulfonamide, potassium salt], for which the IC50 was less than 1000 nM.

In the case of `CC(C)(C)[Si](C)(C)OCCN1CC(S(=O)(=O)NC(=O)Nc2c3c(cc4c2CCC4)CCC3)C1` [Example 151, 1-(2-((tert-Butyldimethylsilyl)oxy)ethyl)-N-((1,2,3,5,6,7-hexahydro-s-indacen-4-yl)carbamoyl)azetidine-3-sulfonamide, potassium salt], the IC50 is less than 1000 nM.

Regarding `CC(C)c1cc(F)cc(-c2ccnc(C#N)c2)c1NC(=O)NS(=O)(=O)C1CN(C(C)C)C1` [Example 157, N-((2-(2-Cyanopyridin-4-yl)-4-fluoro-6-isopropylphenyl)carbamoyl)-1-isopropylazetidine-3-sulfonamide], the IC50 lay within 1000 to 10000 nM.

For the compound `CC(C)c1cc(F)cc(-c2ccnc(C#N)c2)c1NC(=O)NS(=O)(=O)C1CN(C2CCC2)C1` [Example 161, N-((2-(2-Cyanopyridin-4-yl)-4-fluoro-6-isopropylphenyl)carbamoyl)-1-cyclobutylazetidine-3-sulfonamide], the IC50 is 1000 to 10000 nM.

On to `CCN1CC(S(=O)(=O)NC(=O)Nc2c(-c3ccnc(C#N)c3)cc(F)cc2C(C)C)C1` [Example 165, N-((2-(2-Cyanopyridin-4-yl)-4-fluoro-6-isopropylphenyl)carbamoyl)-1-ethylazetidine-3-sulfonamide], for which the IC50 was in the range of 1000 to 10000 nM.

As for `CCN1CC(S(=O)(=O)NC(=O)Nc2c(-c3ccnc(OC)c3)cc(F)cc2C(C)C)C1` [Example 166, 1-Ethyl-N-((4-fluoro-2-isopropyl-6-(2-methoxypyridin-4-yl)phenyl)carbamoyl)azetidine-3-sulfonamide], the IC50 lay within 1000 to 10000 nM.

As to `CC(C)c1cc(F)cc(-c2ccnc(C#N)c2)c1NC(=O)NS(=O)(=O)C1CN(Cc2cccnc2)C1` [Example 169, N-((2-(2-Cyanopyridin-4-yl)-4-fluoro-6-isopropylphenyl)carbamoyl)-1-(pyridin-3-ylmethyl)azetidine-3-sulfonamide], the IC50 was in the range of 1000 to 10000 nM.

With `CC(C)c1cc(F)cc(-c2cccnc2)c1NC(=O)NS(=O)(=O)C1CN(C(C)C)C1` [Example 175, N-((4-Fluoro-2-isopropyl-6-(pyridin-3-yl)phenyl)carbamoyl)-1-isopropylazetidine-3-sulfonamide], the concentration for half-maximal inhibition (IC50) was less than 1000 nM.

As for `CC(C)c1cc(F)cc(-c2cccnc2)c1NC(=O)NS(=O)(=O)C1CCN(C(C)C)CC1` [Example 176, N-((4-Fluoro-2-isopropyl-6-(pyridin-3-yl)phenyl)carbamoyl)-1-isopropylpiperidine-4-sulfonamide], the IC50 is 1000 to 10000 nM.
